US9040525B2, “Cyclic amide derivative” (MOCHIDA PHARMACEUTICAL CO., LTD., priority 2010, dated 2015)
Where a name gives a salt, the structure may show the parent alone.

Biological target: T1, GPR40 of human origin (Homo sapiens, UniProt O14842)
T1 construct: expressed in transfected cells
Experiment: Agonist action on GPR40 of human origin (Ca2+ fluorescence, CHO cell strain stably expressing GPR40)
Format: cell-based
Details: fluctuation of Ca2+ concentration
Protocol: A CHO cell strain stably expressing GPR40 of human origin was used to determine the agonist action of a title compound. This cell strain was seeded in a clear bottom 96 well plate at 2×10^4 cells/100 μL/well. The cell strain was cultured in a CO2 incubator overnight using a Ham's F-12 medium containing a 10% fetal bovine serum, 100 U/mL penicillin, 0.1 mg/mL streptomycin, and 400 μg/mL. Geneticin. Calcium 4 Assay Kit (Molecular Devices) was used as a fluorescent calcium indicator. One mL of 77 mg/mL probenecid (Invitrogen) was added to 100 mL of a calcium indicator solution to prepare a solution (loading solution) mixed with a 20 mM HEPES-containing Hanks' balanced salt solution (HBSS) in equal proportions. To the cells from which the culture solution was removed, 200 μL of the loading solution was added, and the cells were cultured in a CO2 incubator for 1 hour. The title compound was diluted with a 20 mM HEPES-containing HBSS and was added to the cells by 50 μL, and the fluctuation of the Ca^2+concentration was measured by an intracellular ion analyzer. The EC50 value of the title compound was calculated using the dose-response curve of fluorescence intensity variation.

T1 sequence (O14842 whole entry): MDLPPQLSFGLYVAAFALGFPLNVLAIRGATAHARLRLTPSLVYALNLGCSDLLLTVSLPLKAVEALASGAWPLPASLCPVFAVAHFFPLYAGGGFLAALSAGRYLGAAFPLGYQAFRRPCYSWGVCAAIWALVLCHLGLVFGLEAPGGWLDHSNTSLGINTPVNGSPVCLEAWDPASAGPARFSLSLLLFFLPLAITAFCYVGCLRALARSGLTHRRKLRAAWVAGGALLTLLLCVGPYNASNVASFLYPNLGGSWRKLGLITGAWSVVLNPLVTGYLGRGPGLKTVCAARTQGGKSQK

Structure (SMILES)	EC50 [µM]
CCOCCOc1cc(C)c(-c2cccc(COc3ccc(C4CC(=O)N[S+]4[O-])cc3)c2)c(C)c1 (mixture of isomers) [Example 1, 5-[4-[[3-[4-(2-ethoxyethoxy)-2,6-dimethylphenyl]phenyl]methoxy]phenyl]-1-oxo-1,2-thi azolidin-3-one]	< 0.3
Cc1cc(OCC[C@@H](C)O)cc(C)c1-c1cccc(COc2ccc(C3CC(=O)N[S+]3[O-])cc2)c1 (mixture of isomers) [Example 12, 5-[4-[[3-[4-[(3R)-3-hydroxybutoxy]-2,6-dimethylphenyl]phenyl]methoxy]phenyl]-1-oxo-1,2-thiazolidin-3-one]	< 0.3
Cc1cc(OCCCS(C)(=O)=O)cc(C)c1-c1cccc(COc2ccc(C3CC(=O)NS3(=O)=O)cc2)c1 (racemic) [Example 19, 5-[4-[[3-[2,6-dimethyl 4-(3-methylsulfonylpropoxy)phenyl]phenyl]methoxy]phenyl]-1,1-dioxo-1,2-thiazolidin-3-one]	< 0.3
Cc1cc(OCCC(C)(C)O)nc(C)c1-c1cccc(COc2ccc(C3CC(=O)NS3(=O)=O)cc2)c1 (racemic) [Example 20, 5-[4-[[3-[6-(3-hydroxy-3-methylbutoxy)-2,4-dimethylpyridin-3-yl]phenyl]methoxy]phenyl]-1,1-dioxo-1,2-thiazolidin-3-one]	0.3 to 3
Cc1cccc(C)c1-c1cccc(COc2ccc(C3CC(=O)NS(=O)(=O)N3)cc2)c1 (racemic) [Example 21, 5-[4-[[3-(2,6-dimethylphenyl)phenyl]methoxy]phenyl]-1,1-dioxo-1,2,6-thiadiazinan-3-one]	< 0.3
Cc1cccc(C)c1-c1cccc(COc2ccc(C3CC(=O)NS(=O)(=O)C3)cc2)c1 (racemic) [Example 22, 5-[4-[[3-(2,6-dimethylphenyl)phenyl]methoxy]phenyl]-1,1-dioxo-1,2-thiazinan-3-one]	< 0.3
Cc1nc(OCCC(C)(C)O)ccc1-c1cccc2c1CC[C@H]2Oc1ccc(C2CC(=O)N[S+]2[O-])cc1 (single isomer, unassigned) [23(A)-b]	0.3 to 3
Cc1cc(OCCC(C)(C)O)cc(C)c1-c1cccc2c1CC[C@H]2Oc1ccc(C2CC(=O)N[S+]2[O-])cc1 (single isomer, unassigned) [24(A)-a]	< 0.3
CCOCCOc1cc(C)c(-c2cccc(COc3ccc(C4CC(=O)N[S+]4[O-])cc3)c2)c(C)c1F (stereo not shown) [Example 2, 5-[4-[[3-[4-(2-ethoxyethoxy)-3-fluoro-2,6-dimethylphenyl]phenyl]methoxy]phenyl]-1-oxo-1,2-thiazolidin-3-one]	< 0.3
Cc1cc(OCCC(C)(C)O)c(F)c(C)c1-c1cccc(COc2ccc(C3CC(=O)N[S+]3[O-])cc2)c1 (stereo not shown) [Example 3, 5-[4-[[3-[3-fluoro-4-(3-hydroxy-3-methylbutoxy)-2,6-dimethylphenyl]phenyl]methoxy]phenyl]-1-oxo-1,2-thiazolidin-3-one]	< 0.3
Cc1cc(OCCC(C)(C)O)cc(C)c1-c1cccc(COc2ccc(C3CC(=O)N[S+]3[O-])cc2)c1 (stereo not shown) [Example 4, 5-[4-[[3-[4-(3-hydroxy-3-methylbutoxy)-2,6-dimethylphenyl]phenyl]methoxy]phenyl]-1-oxo-1,2-thiazolidin-3-one]	< 0.3
Cc1cc(OCCCS(C)(=O)=O)nc(C)c1-c1cccc(COc2ccc(C3CC(=O)N[S+]3[O-])cc2)c1 (stereo not shown) [Example 5, 5-[4-[[3-[2,4-dimethyl-6-(3-methylsulfonylpropoxy)pyridin-3-yl]phenyl]methoxy]phenyl]-1-oxo-1,2-thiazolidin-3-one]	< 0.3
Cc1cc(OCCC(C)(C)O)nc(C)c1-c1cccc(COc2ccc(C3CC(=O)N[S+]3[O-])cc2)c1 (stereo not shown) [Example 6, 5-[4-[[3-[6-(3-hydroxy-3-methylbutoxy)-2,4-dimethylpyridin-3-yl]phenyl]methoxy]phenyl]-1-oxo-1,2-thiazolidin-3-one]	< 0.3
Cc1cc(-c2cccc(COc3ccc(C4CC(=O)N[S+]4[O-])cc3)c2)c(C)cc1OCCC(C)(C)O (stereo not shown) [Example 7, 5-[4-[[3-[4-(3-hydroxy-3-methylbutoxy)-2,5-dimethylphenyl]phenyl]methoxy]phenyl]-1-oxo-1,2-thiazolidin-3-one]	< 0.3
Cc1cc(OCCCO)cc(C)c1-c1cccc(COc2ccc(C3CC(=O)N[S+]3[O-])cc2)c1 (stereo not shown) [Example 8, 5-[4-[[3-[4-(3-hydroxypropoxy)-2,6-dimethylphenyl]phenyl]methoxy]phenyl]-1-oxo-1,2-thiazolidin-3-one]	< 0.3
Cc1cc(OC[C@H](O)CO)cc(C)c1-c1cccc(COc2ccc(C3CC(=O)N[S+]3[O-])cc2)c1 (stereo partly drawn) [Example 9, 5-[4-[[3-[4-[(2R)-2,3-dihydroxypropoxy]-2,6-dimethylphenyl]phenyl]methoxy]phenyl]-1-oxo-1,2-thiazolidin-3-one]	< 0.3
Cc1cc(OCC(CO)CO)cc(C)c1-c1cccc(COc2ccc(C3CC(=O)N[S+]3[O-])cc2)c1 (stereo not shown) [Example 10, 5-[4-[[3-[4-[3-hydroxy-2-(hydroxymethyl)propoxy]-2,6-dimethylphenyl]phenyl]methoxy]phenyl]-1-oxo-1,2-thiazolidin-3-one]	< 0.3
Cc1cc(OCCCN)cc(C)c1-c1cccc(COc2ccc(C3CC(=O)N[S+]3[O-])cc2)c1 (stereo not shown) [Example 11, 5-[4-[[3-[4-(3-aminopropoxy)-2,6-dimethylphenyl]phenyl]methoxy]phenyl]-1-oxo-1,2-thiazolidin-3-one trifluoroacetic acid salt]	< 0.3
Cc1cc(OCCCS(C)(=O)=O)cc(C)c1-c1cccc(COc2ccc(C3CC(=O)N[S+]3[O-])cc2)c1 (stereo not shown) [Example 13, 5-[4-[[3-[2,6-dimethyl 4-(3-methylsulfonylpropoxy)phenyl]phenyl]methoxy]phenyl]-1-oxo-1,2-thiazolidin-3-one]	< 0.3
Cc1cccc(C)c1-c1cccc(COc2ccc(N3CC(=O)NS3(=O)=O)cc2)c1 [Example 14, 5-[4-[[3-(2,6-dimethylphenyl)phenyl]methoxy]phenyl]-1,1-dioxo-1,2,5-thiadiazolidin-3-one]	< 0.3
Cc1cc(OCCCS(C)(=O)=O)cc(C)c1-c1cccc(COc2ccc(N3CC(=O)NS3(=O)=O)cc2)c1 [Example 15, 5-[4-[[3-[2,6-dimethyl-4-(3-methylsulfonylpropoxy)phenyl]phenyl]methoxy]phenyl]-1,1-dioxo-1,2,5-thiadiazolidin-3-one]	0.3 to 3
Cc1cccc(C)c1-c1cccc(COc2ccc(N3CC(=O)NS3(=O)=O)c(Cl)c2)c1 [Example 16, 5-[2-chloro-4-[[3-(2,6-dimethylphenyl)phenyl]methoxy]phenyl]-1,1-dioxo-1,2,5-thiadiazolidin-3-one]	< 0.3
Cc1cc(OCc2cccc(-c3c(C)cccc3C)c2)ccc1N1CC(=O)NS1(=O)=O [Example 17, 5-[4-[[3-(2,6-dimethylphenyl)phenyl]methoxy]-2-methylphenyl]-1,1-dioxo-1,2,5-thiadiazolidin-3-one]	< 0.3
Cc1cccc(C)c1-c1cccc(COc2ccc(N3C(C)C(=O)NS3(=O)=O)cc2)c1 (stereo not shown) [Example 18, 5-[4-[[3-(2,6-dimethylphenyl)phenyl]methoxy]phenyl]-4-methyl-1,1-dioxo-1,2,5-thiadiazolidin-3-one]	0.3 to 3
N#Cc1ccc(Oc2cccc3c2CC[C@H]3Oc2ccc(C3CC(=O)NS(=O)(=O)N3)cc2)cc1 (stereo partly drawn) [Example 26, 4-(((1R)-1-(4-(1,1-dioxo-1,2,6-thiadiazinan-3-on-5-yl)phenoxy)-2,3-dihydro-1H-inden-4-yl)oxy)benzonitrile]	< 0.3
